Experiments:
Format in all cases: toxicity, cell-based
HEK-293T = assay: Incucyte cell viability with HEK293T; details: human, 10 µM, compound concentration 10 uM
Fibroblast = assay: Incucyte cell viability with human fibroblast; details: 10 µM, compound concentration 10 uM
U2OS = assay: Incucyte cell viability with U2OS; details: human, 10 µM, compound concentration 10 uM
Also: unitless GR value; below 1 slowed growth and below 0 cell loss.

Compound	Growth Rate (HEK-293T; 0 h, replicate number 1)	Growth Rate (HEK-293T; 0 h, replicate number 2)	Growth Rate (HEK-293T; 6 h, replicate number 1)	Growth Rate (HEK-293T; 18 h, replicate number 1)	Growth Rate (HEK-293T; 18 h, replicate number 2)	Growth Rate (HEK-293T; 24 h, replicate number 1)	Growth Rate (HEK-293T; 24 h, replicate number 2)	Growth Rate (Fibroblast; 0 h, replicate number 1)	Growth Rate (Fibroblast; 0 h, replicate number 2)	Growth Rate (Fibroblast; 6 h, replicate number 1)	Growth Rate (Fibroblast; 12 h, replicate number 1)	Growth Rate (Fibroblast; 12 h, replicate number 2)	Growth Rate (Fibroblast; 18 h, replicate number 1)	Growth Rate (Fibroblast; 18 h, replicate number 2)	Growth Rate (Fibroblast; 24 h, replicate number 1)	Growth Rate (Fibroblast; 24 h, replicate number 2)	Growth Rate (U2OS; 0 h, replicate number 2)	Growth Rate (U2OS; 6 h, replicate number 2)	Growth Rate (U2OS; 12 h, replicate number 2)	Growth Rate (U2OS; 24 h, replicate number 1)	also measured
CC1(C)Cc2nc(C3CCCC3)c([C@@H](F)c3ccc(C(F)(F)F)cc3)c(C3CCCCC3)c2[C@@H](O)C1	0.94	-0.11	0.88	0.88	0.91	0.83	0.89	-0.22	-0.59	0.71	0.46	0.89	0.51	0.82	0.38	0.95	0.96	0.48	0.54	0.87	Growth Rate (U2OS; 18 h, replicate number 2): 0.82
CCc1cnn2c(NCc3ccc[n+]([O-])c3)cc(N3CCCCC3CCO)nc12 (stereo not given)	-0.01	–	-0.39	-0.2	-0.53	-0.14	-0.41	-0.96	0.67	0.11	0.25	-0.13	0.16	-0.04	0.25	-0.14	0.91	0.07	0.11	-0.23	Growth Rate (HEK-293T; 6 h, replicate number 2): -0.72; Growth Rate (HEK-293T; 12 h, replicate number 1): -0.26; Growth Rate (HEK-293T; 12 h, replicate number 2): -0.66; Growth Rate (Fibroblast; 6 h, replicate number 2): 0; Growth Rate (U2OS; 0 h, replicate number 1): -0.62; Growth Rate (U2OS; 6 h, replicate number 1): 0.19; Growth Rate (U2OS; 12 h, replicate number 1): -0.08; Growth Rate (U2OS; 18 h, replicate number 1): -0.15; Growth Rate (U2OS; 18 h, replicate number 2): -0.08
CCCCOc1c(C(=O)c2c(F)cc(C)cc2F)c[nH]c2nncc1-2	-1	–	–	–	–	–	–	-1	–	–	–	–	–	–	–	–	–	–	–	–	Growth Rate (U2OS; 0 h, replicate number 1): -1
CN(C(=O)CCOCCOCCOCCOCCNc1cccc2c1C(=O)N(C1CCC(=O)NC1=O)C2=O)[C@H]1CC[C@@]2(C)[C@@H](CC[C@@H]3[C@@H]2CC[C@]2(C)[C@@H](c4ccc5ccncc5c4)CC[C@@H]32)C1 (stereo not given in full)	0.06	-0.85	0.57	0.76	0.79	0.88	0.76	-1	–	–	–	–	–	0.88	–	0.91	–	–	-0.46	0.92	Growth Rate (HEK-293T; 6 h, replicate number 2): 1; Growth Rate (HEK-293T; 12 h, replicate number 1): 0.77; Growth Rate (HEK-293T; 12 h, replicate number 2): 0.73; Growth Rate (U2OS; 6 h, replicate number 1): 0.52; Growth Rate (U2OS; 12 h, replicate number 1): 0.79; Growth Rate (U2OS; 18 h, replicate number 1): 0.82

Source: ChEMBL document CHEMBL5303304, “EUbOPEN Chemogenomics Library - IncuCyte” (2023)
